{"source": "patent US20240391928A1", "about": "“COMPOSITIONS FOR THE TREATMENT OF FOOD AND CHEMICAL ADDICTION AND METHODS OF MAKING AND USING SAME” (Duke University, priority 2021, published 2024)", "key": {"GHSR1a^E197A [1]": {"molecular_target": "T1, GHSR1a^E197A (Homo sapiens, UniProt Q92847, E197A)", "T1 construct": "expressed in transfected cells; host or cells: HEK293/T", "T1 sequence (Q92847 whole entry E197A)": "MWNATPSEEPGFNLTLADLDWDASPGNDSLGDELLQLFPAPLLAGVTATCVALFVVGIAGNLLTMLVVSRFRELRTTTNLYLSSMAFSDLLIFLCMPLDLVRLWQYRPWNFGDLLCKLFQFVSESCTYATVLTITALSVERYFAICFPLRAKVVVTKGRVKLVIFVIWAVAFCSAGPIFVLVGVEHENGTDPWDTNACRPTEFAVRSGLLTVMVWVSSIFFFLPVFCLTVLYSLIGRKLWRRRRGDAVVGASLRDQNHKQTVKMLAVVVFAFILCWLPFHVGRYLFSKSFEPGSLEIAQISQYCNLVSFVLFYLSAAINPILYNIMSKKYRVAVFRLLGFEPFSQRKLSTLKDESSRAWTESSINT", "test": "TRUPATH Gαq dissociation at E197A mutant", "format": "cell-based"}, "GHSR1a^E197A [2]": {"molecular_target": "T1, GHSR1a^E197A", "test": "iCa2+ at E197A mutant", "format": "cell-based", "method": "(§1) For experiments with WT and Gt KO HEK293/S cells, […] of hGHSR1a^WT, 10 μg of miAEQ, and 2.5 μg of pcDNA3.1 was transiently transfected into 10 cm dishes and incubated overnight. […] Twenty-four hours later, experiments proceeded in accordance with the procedures described above. To control for any possible kinetic differences in genetically modified cell lines or GHSR1a variants, the average ligand-induced response over 10 seconds was calculated, then normalized by dividing the L-miAeq by the L-miAeq plus the Lysis-miAeq and normalized to the appropriate control/reference condition."}, "hGHSR1a^A204E [3]": {"molecular_target": "T2, hGHSR1a^A204E (Homo sapiens, UniProt Q92847, A204E)", "description": "β-arr2 recruitment: In agonist and antagonist assays of NanoBiT-based β-arr2 recruitment, hGHSR1a^WT-Lg^BiT and ^SmBiT-β^WT were transiently co-transfected at a 1:1 ratio (250 μg each) into monolayers of HEK293/T cells on 6-well plates along with 2 μg of pcDNA3.1. For assays employing the Ala204Glu variant, hGHSR1a^A204E-Lg^BiT was transfected at 2×hGHSR1a^WT-Lg^BiT, as performed for iCa^2+ assays with hGHSR1a^A204E described above. For GHSR1a-β-arr2 saturation assays, a fixed amount of hGHSR1a^WT-Lg^BiT cDNA (250 μg) was transfected with 0, 62.5 (1:0.25), 125 (1:0.5), 250 (1:1), 500 (1:2), or 1000 (1:4) μg of ^SmBiTβ-arr^WT. The morning after transfection, media was exchanged and after 4-6 hours, cells were then plated on white 96-well, clear-bottomed assay plates at a density of 45,000 cells/well in opti-MEM supplemented with 2% FBS and antibiotic/antimycotic. The following morning, opti-MEM was removed and cells were incubated with 70-80 μL HBSS supplemented with 20 mM HEPES (pH 7.4) for 4 hours. Cells were then treated with 10 μL of coelenterazine H (5 μM final) for 15-20 minutes at room temperature. Cells were then stimulated with 10 μL of test compounds and 2 minutes later, luminescence was measured over 5 minutes, which encompassed the peak β-arr2 recruitment signal."}, "GHSR1a^P200A": {"molecular_target": "T3, GHSR1a^P200A (Homo sapiens, UniProt Q92847, P200A)", "T3 construct": "expressed in transfected cells; host or cells: HEK293/T", "T3 sequence (Q92847 whole entry P200A)": "as the sequence (Q92847 whole entry E197A) above, with A197E, P200A counted along it", "test": "Gαq dissociation and iCa2+ at P200A mutant", "format": "cell-based", "method": "as §1"}, "hGHSR1a^A204E [4]": {"molecular_target": "T2, hGHSR1a^A204E", "test": "iCa2+ at A204E variant", "format": "cell-based", "set-up": "expressed in transfected cells; host or cells: HEK293/T, transient", "method": "as §1"}, "hGHSR1a^A204E [5]": {"molecular_target": "T2, hGHSR1a^A204E", "test": "cell-based", "conditions": "read-out: Gαq dissociation maximal efficacy decrease at GHSR1a^A204E", "description": "(§2) BRET-based Gαq Dissociation & β-arr2 Recruitment Assays. TRUPATH Gα dissociation: Gαq/i1/i2/OA/12/13/sS^RLuc8 and Gγ8^GFP2 or Gγ9^GFP2 were transiently co-transfected with human 3×HA-GHSR1a^WT and untagged Gβ3 at a 1:1:1:1 ratio (100 μg each) into monolayers of HEK293/T cells along with 1.6 μg pcDNA3.1. The next morning, media (DMEM supplemented with 10% FBS and antibiotic/antimycotic) was exchanged and after 4-6 hours, cells were plated on white 96-well, clear-bottomed assay plates at a density of 40,000-50,000 cells/well in opti-MEM supplemented with 2% FBS and antibiotic/antimycotic. The next morning, opti-MEM was removed and cells were incubated with 80 μL HBSS supplemented with 20 mM HEPES (pH 7.4) for 4 hours. Cells were then treated with 10 μL of the luminescent substrate, coelenterazine 400a (5 μM final), for 5 minutes at room temperature prior to the addition of 10 μL of test compound. Five minutes after ligand application, luminescence was measured by a Mithras 940 plate reader over 30 minutes and the maximal response was utilized for generating all C/R curves."}, "C57BL/6J mice": {"system": "C57BL/6J mice", "test": "Cocaine-induced behavioral sensitization", "format": "in vivo, mouse", "conditions": "N8279 5 mg/kg IP; cocaine 20 mg/kg", "method": "Next, cocaine-induced behavioral sensitization was assessed in male and female C57BL/6J mice following subchronic (8-day) administration of the vehicle or N8279 (5 mg/kg, IP) in the home-cage. Subsequently, mice were given the same treatments as described above, followed with an injection (IP) of vehicle or cocaine (20 mg/kg) in the open-field once per day for 5 days (FIG. 4D). A […] hiatus (washout) was imposed and behavioral sensitization was assessed the next day by giving (IP) vehicle or cocaine (challenge). […] By comparison, motor activities were stimulated acutely (day 1) to similar extents in the vehicle+cocaine and N8279+cocaine mice (FIG. 4E). […] Moreover, at challenge (day 11), locomotor activity was augmented relative to day 1 in the vehicle+cocaine mice, whereby no change in activity was evident in the N8279+cocaine mice.\nCocaine Sensitization. Male and female C57BL6/J mice (Jackson Labs, Bar Harbor, ME) were administered (IP) vehicle or N8279 (5 mg/kg) subchronically for 8 consecutive days (once/day) (FIG. 4D). Subsequently, mice were placed into the open-field (Accuscan Instruments, Columbus, OH) for 30 min, they were removed, injected (IP) with vehicle or N8279, returned to the open field for 30 min, then the mice were given (IP) vehicle or cocaine (20 mg/kg) and returned to the open-field for 120 minutes (FIG. 4D). […]"}, "hGHSR1a^A204E [6]": {"molecular_target": "T2, hGHSR1a^A204E", "conditions": "C/R curve did not saturate", "description": "as §2"}, "hGHSR1a^WT": {"molecular_target": "hGHSR1a^WT (Homo sapiens, UniProt Q92847)", "sequence (Q92847 whole entry)": "as the sequence (Q92847 whole entry E197A) above, with A197E counted along it", "test": "Fixed-cell ELISA GHSR1a internalization", "format": "cell-based", "set-up": "expressed in transfected cells; HEK293/S Gαq/11 KO and parental WT (iCa2+)", "conditions": "45 minutes at 37° C.", "method": "Chemiluminescent Fixed-Cell ELISA. […] The next morning, media was removed and cells were serum starved with 90 μL of opti-MEM (containing no serum) for 2-3 hours at 37° C. Cells were then stimulated with 10× test compounds (diluted in serum-free opti-MEM) for 45 minutes at 37° C. in a humidified incubator. After 45 minutes, cells were fixed with 4% paraformaldehyde for 15 minutes (RT). Fixed cells were then washed three times with PBS (pH 7.4, Gibco) and blocked with fish gelatin in TBS (Rockland, Gilbertsville, PA) for 45 minutes. Cells were then incubated with a rabbit, horseradish peroxidase (HRP)-conjugated anti-HA antibody (1:2, 500; Novus Biologicals, Littleton, CO) for 1 hour (RT). […] The average luminescence was used and the data for each ligand were normalized its corresponding vehicle treatment conditions."}, "GHSR1a^R199A": {"molecular_target": "T4, GHSR1a^R199A (Homo sapiens, UniProt Q92847, R199A)", "T4 construct": "expressed in transfected cells; host or cells: HEK293/T", "T4 sequence (Q92847 whole entry R199A)": "as the sequence (Q92847 whole entry E197A) above, with A197E, R199A counted along it", "test": "Gαq dissociation and iCa2+ at R199A mutant", "format": "cell-based", "method": "as §1"}, "GHSR1a": {"molecular_target": "GHSR1a (Homo sapiens, UniProt Q92847)", "sequence (Q92847 whole entry)": "as the sequence (Q92847 whole entry E197A) above, with A197E counted along it", "test": "Bias factor, intrinsic relative activities (RAi) model, Gαq vs β-arr2", "set-up": "expressed in transfected cells; host or cells: HEK293/T and HEK293/N (the source assays)", "from_the_text": "To quantitatively assess N8279 bias between the Gαq and β-arr2 (FIG. 2A) pathways, the intrinsic relative activities (RAi) model was used. […] Ultimately, these analyses together supported that N8279 was a G protein-biased agonist of both proximal and downstream GHSR1a-Gαq signaling."}}, "note": "“And” between values parts separate entries of the source, which are not always exact repeats. Equal values may be shown once. Read-outs that look alike come from different tables or passages of the source."}
{"smiles": "COc1ccc(C(=O)c2c(C(=O)NCCCN(C)C)oc3ccc(Cl)cc3c2=O)cc1OC", "note": "[Example N8279, 6-Chloro-3-(3,4-dimethoxybenzoyl)-N-(3-(dimethylamino)propyl)-4-oxo-4H-chromene-2-carboxamide]", "values": [{"measurement": "Gαq dissociation potency reduction at GHSR1a^E197A", "setting": "GHSR1a^E197A [1]", "value": "~10", "unit": "fold"}, {"measurement": "iCa2+ potency reduction at GHSR1a^E197A", "setting": "GHSR1a^E197A [2]", "value": "~3", "unit": "fold"}, {"measurement": "Emax", "setting": "hGHSR1a^A204E [3]", "value": "~35", "unit": "%"}, {"measurement": "potency and Emax at GHSR1a^P200A in words", "setting": "GHSR1a^P200A", "value": "reduced dramatically"}, {"measurement": "iCa2+ efficacy at GHSR1a^A204E in words", "setting": "hGHSR1a^A204E [4]", "value": "full agonism was retained"}, {"measurement": "iCa2+ potency reduction at GHSR1a^A204E vs WT", "setting": "hGHSR1a^A204E [4]", "value": 6.5, "unit": "fold"}, {"measurement": "Emax", "setting": "hGHSR1a^A204E [5]", "value": "~45", "unit": "%"}, {"measurement": "cocaine-induced behavioral sensitization in words", "setting": "C57BL/6J mice", "value": "delayed the appearance of sensitization across days and abrogated the expression of sensitization following washout"}, {"measurement": "Gαq dissociation potency reduction at GHSR1a^A204E vs WT", "setting": "hGHSR1a^A204E [6]", "value": "> 20", "unit": "fold"}, {"measurement": "internalization efficacy reduction relative to ghrelin (ELISA)", "setting": "hGHSR1a^WT", "value": "~30", "unit": "%"}, {"measurement": "internalization potency reduction relative to ghrelin (ELISA)", "setting": "hGHSR1a^WT", "value": 24, "unit": "fold"}, {"measurement": "potency at GHSR1a^R199A in words", "setting": "GHSR1a^R199A", "value": "did not affect"}, {"measurement": "downstream bias", "setting": "GHSR1a; reference L585", "value": "~14", "unit": "fold"}, {"measurement": "downstream bias factor (β)", "setting": "GHSR1a; reference L585", "value": 1.15}, {"measurement": "proximal bias", "setting": "GHSR1a; reference L585", "value": "~28", "unit": "fold"}, {"measurement": "proximal bias factor (β)", "setting": "GHSR1a; reference L585", "value": 1.45}, {"measurement": "assay-standardized proximal bias factor (β), BRET-Gαq/BRET-β-arr2", "setting": "GHSR1a; reference ghrelin", "value": "1.16±0.11 and 1.16"}, {"measurement": "assay-standardized proximal bias factor (β), NanoBiT-Gαq/NanoBiT-β-arr2", "setting": "GHSR1a; reference ghrelin", "value": "1.36±0.33 and 1.36"}, {"measurement": "assay-standardized proximal bias, BRET-Gαq/BRET-β-arr2", "setting": "GHSR1a; reference ghrelin", "value": "~14", "unit": "fold"}, {"measurement": "assay-standardized proximal bias, NanoBiT-Gαq/NanoBiT-β-arr2", "setting": "GHSR1a; reference ghrelin", "value": "~23", "unit": "fold"}, {"measurement": "downstream bias factor (β), iCa2+ vs NanoBiT β-arr2", "setting": "GHSR1a; reference ghrelin", "value": 2.63}, {"measurement": "downstream bias, iCa2+ vs NanoBiT β-arr2", "setting": "GHSR1a; reference ghrelin", "value": "~427", "unit": "fold"}, {"measurement": "proximal bias factor (β), Gαq dissociation vs NanoBiT β-arr2", "setting": "GHSR1a; reference ghrelin", "value": 0.59}, {"measurement": "proximal bias, Gαq dissociation vs NanoBiT β-arr2", "setting": "GHSR1a; reference ghrelin", "value": "~4", "unit": "fold"}]}
